{"source": "the Kinase Knowledgebase extract (Sharma et al. 2016)", "data": [{"target": "PIK3CG (human) (UniProt P48736)", "sequence (P48736 whole entry, looked up)": "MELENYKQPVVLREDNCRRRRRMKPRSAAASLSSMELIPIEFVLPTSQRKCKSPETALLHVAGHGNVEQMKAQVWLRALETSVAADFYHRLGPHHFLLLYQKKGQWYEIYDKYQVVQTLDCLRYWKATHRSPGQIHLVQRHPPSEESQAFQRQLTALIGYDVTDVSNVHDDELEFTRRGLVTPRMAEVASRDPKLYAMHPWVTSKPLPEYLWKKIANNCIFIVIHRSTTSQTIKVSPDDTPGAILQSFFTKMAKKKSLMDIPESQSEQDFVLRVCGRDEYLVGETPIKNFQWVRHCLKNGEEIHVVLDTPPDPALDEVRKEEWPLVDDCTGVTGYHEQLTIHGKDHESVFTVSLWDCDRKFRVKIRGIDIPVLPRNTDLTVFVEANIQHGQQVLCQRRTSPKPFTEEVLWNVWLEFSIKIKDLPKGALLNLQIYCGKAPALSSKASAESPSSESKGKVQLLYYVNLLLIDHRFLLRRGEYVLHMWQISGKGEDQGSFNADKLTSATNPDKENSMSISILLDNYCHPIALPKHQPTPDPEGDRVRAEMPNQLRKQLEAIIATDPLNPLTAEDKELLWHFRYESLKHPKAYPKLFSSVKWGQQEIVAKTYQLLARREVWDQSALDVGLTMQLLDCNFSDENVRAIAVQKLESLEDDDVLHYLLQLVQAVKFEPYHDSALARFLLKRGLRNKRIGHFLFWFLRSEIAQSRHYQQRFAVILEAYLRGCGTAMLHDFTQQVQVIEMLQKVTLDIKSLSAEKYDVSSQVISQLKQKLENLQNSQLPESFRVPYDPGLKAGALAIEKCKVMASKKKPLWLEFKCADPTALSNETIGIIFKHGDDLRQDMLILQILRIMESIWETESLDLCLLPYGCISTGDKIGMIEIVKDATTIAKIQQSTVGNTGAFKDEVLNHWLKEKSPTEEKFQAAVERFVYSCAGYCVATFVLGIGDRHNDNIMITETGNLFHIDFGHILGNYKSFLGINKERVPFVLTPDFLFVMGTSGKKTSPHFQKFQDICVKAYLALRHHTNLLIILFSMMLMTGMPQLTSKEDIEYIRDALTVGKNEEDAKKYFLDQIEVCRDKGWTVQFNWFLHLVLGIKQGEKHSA", "test": "Inhibition of PIK3CG Kinase Activity", "units": {"Ki": "nM"}, "values": [{"molecule": "CCOc1ncc(-c2cc(C)c3c(n2)C(O)N(c2cnn(CC(F)(F)F)c2)C3=O)cc1OC", "note": "(stereo not drawn)", "Ki": "< 100"}, {"molecule": "CCCOc1cc(-c2cc(C)c3c(n2)CN(c2ccn(CC)n2)C3=O)cnc1OC", "Ki": "< 100"}, {"molecule": "CCc1cc(N2Cc3nc(-c4cnc(OC)c(OC)c4)cc(C)c3C2=O)nn1CC", "Ki": "< 100"}, {"molecule": "COc1cc(-c2ccc3c(n2)CN(c2cncs2)C3=O)cnc1OC", "Ki": "< 100"}, {"molecule": "CCC1c2nc(-c3cncc(OC(F)F)c3)cc(C)c2C(=O)N1c1cnn(CC(F)(F)F)c1", "note": "(stereo not drawn)", "Ki": "< 100"}, {"molecule": "CCOc1ncc(-c2ccc3c(n2)CN(c2cnn(CC#N)c2)C3=O)cc1OC", "Ki": "< 100"}, {"molecule": "CCc1ncc(-c2cc(C)c3c(n2)CN(c2cnn(CC(F)(F)F)c2)C3=O)cc1OC", "Ki": "< 100"}, {"molecule": "COc1cc(-c2ccc3c(n2)CN(c2ccn(CC4COCCO4)n2)C3=O)cnc1OC", "note": "(stereo not drawn)", "Ki": "< 100"}, {"molecule": "COc1cncc(-c2cc(C)c3c(n2)C2(CNC2)N(c2cnn(CC(F)(F)F)c2)C3=O)c1", "Ki": "< 100"}, {"molecule": "COc1cc(-c2cc(C)c3c(c2)CN(c2cnn(CC#N)c2)C3=O)cnc1OC", "Ki": "< 100"}, {"molecule": "CCNC(=O)c1cc(-c2cc(C)c3c(n2)C(C)N(c2cnn(CC(F)F)c2)C3=O)cnc1OC", "note": "(stereo not drawn)", "Ki": "< 100"}, {"molecule": "CCNC(=O)c1cc(-c2cc(C)c3c(n2)C(C)(C)N(c2cnn(CC(F)F)c2)C3=O)cnc1OC", "Ki": "< 100"}, {"molecule": "COc1cc(-c2ccc3c(n2)CN(c2ccc(N4CCCC(CO)C4)nc2)C3=O)cnc1OC", "note": "(stereo not drawn)", "Ki": "< 100"}, {"molecule": "COc1cc(-c2ccc3c(c2)CN(c2cccc(C(C)=O)c2)C3=O)cnc1OC", "Ki": "100 to 490"}, {"molecule": "CCn1cc(N2C(=O)c3ccc(-c4cnc(OC)c(OC(F)F)c4)nc3[C@@H]2C)cn1", "Ki": "< 100"}, {"molecule": "COc1cc(-c2ccc3c(n2)CN(c2ccc(OC(CO)C(F)(F)F)nc2)C3=O)cnc1OC", "note": "(stereo not drawn)", "Ki": "< 100"}, {"molecule": "COc1cc(-c2ccc3c(n2)[C@@H](C)N(c2ccn(CC(F)(F)F)n2)C3=O)cnc1OC", "Ki": "< 100"}, {"molecule": "CCn1ccc(N2Cc3nc(-c4cncc(OC)c4)cc(C)c3C2=O)n1", "Ki": "< 100"}, {"molecule": "CCNC(=O)Cn1cc(N2Cc3nc(-c4cnc(OC)c(OC)c4)ccc3C2=O)cn1", "Ki": "< 100"}, {"molecule": "COc1cncc(-c2cc(C)c3c(n2)C2(CN(C(=O)OC(C)(C)C)C2)N(c2cnn(CC(F)(F)F)c2)C3=O)c1", "Ki": "< 100"}, {"molecule": "COc1cc(-c2ccc3c(n2)CN(c2cnn(CC4CCCN4)c2)C3=O)cnc1OC", "note": "(stereo not drawn)", "Ki": "100 to 490"}, {"molecule": "CC[C@@]1(OC)c2nc(-c3cnc(OC)c(OC)c3)cc(C)c2C(=O)N1c1cnn(CC(F)(F)F)c1", "Ki": "< 100"}, {"molecule": "Cc1cc(-c2cncc(OC(F)F)c2)nc2c1C(=O)N(c1ccnc(OCC(F)F)c1)C2C", "note": "(stereo not drawn)", "Ki": "< 100"}, {"molecule": "COc1cc(-c2cc(C)c3c(n2)CN(c2cncc(S(C)(=O)=O)c2)C3=O)cnc1OC", "Ki": "< 100"}, {"molecule": "COc1cc(-c2cc(C)c3c(n2)CN(c2ccn(C4CC4)n2)C3=O)cnc1OC", "Ki": "< 100"}, {"molecule": "CCOc1cncc(-c2cc(C)c3c(n2)C(C)(C)N(c2cnn(COCCOC)c2)C3=O)c1", "Ki": "100 to 490"}, {"molecule": "Cc1cc(-c2cncc(C(=O)NCC(F)F)c2)nc2c1C(=O)N(c1cnn(CC(F)(F)F)c1)C2(C)C", "Ki": "< 100"}, {"molecule": "Cc1cc(-c2cncc(C(=O)NCC3CC3)c2)nc2c1C(=O)N(c1cnn(CC(F)(F)F)c1)C2(C)C", "Ki": "< 100"}, {"molecule": "Cc1cc(-c2cncc(C(F)(F)F)c2)cc2c1C(=O)N(c1cnn(CC(F)(F)F)c1)C2C", "note": "(stereo not drawn)", "Ki": "< 100"}, {"molecule": "COc1cncc(-c2cc(C)c3c(n2)C(C)N(c2ccn([C@@H]4CCOC4)n2)C3=O)c1", "note": "(stereo partly drawn)", "Ki": "< 100"}, {"molecule": "COc1ncc(-c2cc(C)c3c(n2)CN(c2cnn(CC(F)(F)F)c2)C3=O)cc1OCC1CCCCO1", "note": "(stereo not drawn)", "Ki": "< 100"}, {"molecule": "COc1cc(-c2cc(C)c3c(n2)C(C)N(c2cnn(CC(F)(F)F)c2)C3=O)cnc1C", "note": "(stereo not drawn)", "Ki": "< 100"}, {"molecule": "COc1cc(OC)c(-c2cc(C)c3c(n2)CN(c2cnn(CC(F)(F)F)c2)C3=O)cn1", "Ki": "< 100"}, {"molecule": "COc1cc(-c2ccc3c(n2)CN(c2cnn(C4CC4)c2)C3=O)cnc1OC", "Ki": "< 100"}, {"molecule": "Cc1cc(-c2cccnc2NC(=O)C(C)(C)C)nc2c1C(=O)N(c1cnn(CC(F)(F)F)c1)C2", "Ki": "< 100"}, {"molecule": "CCn1ccc(N2Cc3cc(-c4cnc(OC)c(OC)c4)ccc3C2=O)n1", "Ki": "< 100"}, {"molecule": "CCn1cc(N2Cc3cc(-c4cnc5ccccc5c4)ccc3C2=O)cn1", "Ki": "100 to 490"}, {"molecule": "COc1cc(-c2cc(C)c3c(n2)CN(c2cncc(CO)c2)C3=O)cnc1OC", "Ki": "< 100"}, {"molecule": "COc1cc(-c2cc(C)c3c(n2)[C@](C)(O)N(c2cnn(CC(F)(F)F)c2)C3=O)cnc1OC", "Ki": "< 100"}, {"molecule": "COc1ncc(-c2ccc3c(n2)CN(c2cnn(CC#N)c2)C3=O)cn1", "Ki": "100 to 490"}, {"molecule": "COc1cncc(-c2cc(C)c3c(n2)C2(CCOC2)N(c2cnn(CC(F)(F)F)c2)C3=O)c1", "note": "(stereo not drawn)", "Ki": "< 100"}, {"molecule": "COc1cc(-c2ccc3c(n2)CN(c2cnn(C4CCCCC4O)c2)C3=O)cnc1OC", "note": "(stereo not drawn)", "Ki": "100 to 490"}, {"molecule": "COc1cc(-c2ccc3c(n2)CN(c2cc(C)n(CC(F)(F)F)n2)C3=O)cnc1OC", "Ki": "< 100"}, {"molecule": "COc1ncc(-c2cc(C)c3c(n2)CN(c2ccn(C4COC4)n2)C3=O)cc1OC(C)C", "Ki": "< 100"}, {"molecule": "CCC1c2nc(-c3cnc(OC)c(OC)c3)ccc2C(=O)N1c1cc(COC)n(CC)n1", "note": "(stereo not drawn)", "Ki": "100 to 490"}, {"molecule": "COc1cc(-c2cc(C)c3c(n2)[C@@](C)(OC)N(c2cnn(CC(F)(F)F)c2)C3=O)cnc1OC", "Ki": "< 100"}, {"molecule": "CCc1cc(N2Cc3nc(-c4cnc(OC)c(OC)c4)ccc3C2=O)nn1C[C@H](C)O", "Ki": "< 100"}, {"molecule": "CCn1cc(N2C(=O)c3c(C)cc(-c4cncc(OC(F)F)c4)nc3[C@H]2C)cn1", "Ki": "< 100"}, {"molecule": "Cc1ncc(-c2ccc3c(n2)CN(c2cnn(CC(F)(F)F)c2)C3=O)cc1OCC(F)F", "Ki": "100 to 490"}, {"molecule": "Cc1cc(-c2cnc(C)c(O)c2)nc2c1C(=O)N(c1cnn(CC(F)(F)F)c1)C2(C)C", "Ki": "< 100"}, {"molecule": "CCc1cc(N2Cc3nc(-c4cnc(OC)c(OC)c4)ccc3C2=O)nn1CC", "Ki": "< 100"}, {"molecule": "CCO[C@H]1c2nc(-c3cnc(OC)c(OC)c3)cc(C)c2C(=O)N1c1cnn(CC(F)(F)F)c1", "Ki": "< 100"}, {"molecule": "COc1ncc(-c2cc(C)c3c(n2)CN(c2cnn(CC(F)(F)F)c2)C3=O)cc1Cl", "Ki": "< 100"}, {"molecule": "COc1cncc(-c2cc(C)c3c(n2)CN(c2cnn(CC(F)F)c2)C3=O)c1", "Ki": "< 100"}, {"molecule": "COc1cc(-c2cc(C)c3c(n2)CN(c2cncc(OCCO)c2)C3=O)cnc1OC", "Ki": "< 100"}, {"molecule": "COc1ncc(-c2cc(C)c3c(n2)CN(c2cnn(CC(F)(F)F)c2)C3=O)cc1O", "Ki": "< 100"}, {"molecule": "CCNC(=O)c1cc(-c2cc(C)c3c(n2)C(C)(C)N(c2cnn(CC(F)(F)F)c2)C3=O)cnc1OC", "Ki": "< 100"}, {"molecule": "COc1cc(-c2cc(C)c3c(n2)CN(c2cc(C)[nH]n2)C3=O)cnc1OC", "Ki": "< 100"}, {"molecule": "COc1cc(-c2ccc3c(n2)C(C)(C)N(c2cnn(CC(F)(F)F)c2)C3=O)cnc1OC", "Ki": "< 100"}, {"molecule": "CCOc1ccnc(N2Cc3nc(-c4cnc(OC)c(OC)c4)cc(C)c3C2=O)c1", "Ki": "< 100"}, {"molecule": "COc1cc(-c2ccc3c(n2)C(C)N(c2ccn(CC(C)(C)O)n2)C3=O)cnc1OC", "note": "(stereo not drawn)", "Ki": "< 100"}, {"molecule": "COc1cc(-c2cc(C)c3c(n2)[C@]2(CCCO2)N(c2cnn(CC(F)(F)F)c2)C3=O)cnc1OC", "Ki": "< 100"}, {"molecule": "COc1cc(-c2cc(C)c3c(n2)[C@H](C)N(c2cnn(CC(F)(F)F)c2)C3=O)cnc1C", "Ki": "< 100"}, {"molecule": "CCOc1ncc(-c2ccc3c(n2)C(C)N(c2cnn(CC(F)(F)F)c2)C3=O)cc1OC", "note": "(stereo not drawn)", "Ki": "< 100"}, {"molecule": "COc1cncc(-c2cc(C)c3c(n2)[C@@H](C)N(c2cnn(CC(F)(F)F)c2)C3=O)c1", "Ki": "< 100"}, {"molecule": "COc1cc(OC)c(-c2cc(C)c3c(n2)C(C)N(c2cnn(CC(F)(F)F)c2)C3=O)cn1", "note": "(stereo not drawn)", "Ki": "< 100"}, {"molecule": "COc1cc(-c2ccc3c(n2)CN(c2cnn(CC4CC4)c2)C3=O)cnc1OC", "Ki": "< 100"}, {"molecule": "COc1cc(-c2cc(C)c3c(n2)CN(c2cnn(CC(F)(F)F)c2)C3=O)cc(OC)n1", "Ki": "< 100"}]}]}
